Experimental data: patent US10351847B2, “Identification and display of peptide ligands” (OXFORD UNIVERSITY INNOVATION LIMITED, priority 2013, dated 2019)
Entries after “also recorded” stand apart in the source; their conditions may differ. Where two headings read alike, the source gives them in different places. Ends that are not written are not given here. GS linker = not defined here

Columns and labels:
purified gp120 = test: Surface plasmon resonance (BIAcore) KD of peptides to gp120; format: binding, HIV-1
Experimental: Immobilisation of purified gp120 protein (1 mg/ml) and purified HLA-A2 heavy chain (reference control, 1 mg/ml) onto the surface of individual flow-cells (Fc1 and Fc2 respectively) of CM5 sensor chip (GE Healthcare) was performed under conditions of 20 μl/min flow rate and 25° C., with HBS-EP buffer (0.01 M HEPES pH 7.4, 0.15 M NaCl, 0.005% v/v Surfactant P20; GE Healthcare) as the running buffer. After initiating the system, 100 μl 0.05M solution of EDC [1-ethyl-3-(3-dimethylaminopropyl) carbodiimide]/NHS (N-Hydroxysuccinimide) at 1:1 ratio was injected to activate the dextran matrix of the sensor chip surface. After immobilisation, 150 μl of 1M ethanolamine hydrochloride was injected to deactivate the unreacted carboxylmethyl groups on the dextran matrix. Finally, 30 μl of Glycine pH2.5 was injected to remove any non-covalently bound proteins.
The affinity analyses of the interaction between 9-amino-acid predicted peptides and purified gp120 were performed using the BIAcore T200 (GE Healthcare), under conditions of 10 μl/min flow rate and 25° C. and using HBS-EP buffer (0.01 M HEPES pH 7.4, 0.15 M NaCl, 0.005% v/v Surfactant P20; GE Healthcare) as the running buffer. Prior to experiment, the 9-amino-acid peptides were diluted to 1 mg/ml with HBS-EP buffer. A 2-fold serial dilution of totally 8 concentrations was used to pass through the […]. The data were analysed using Microcal Origin version 7.5 (Microcal Software Limited).
In order to obtain quantitative measurements of binding reactions between predicted peptides and gp120, surface plasmon resonance (BIAcore) was used to measure the equilibrium dissociation constant KD of the predicted peptides and gp120. […] Since the KD to gp120 is relative to different analytes, purified protein HLA-A*0201 heavy chain was used as a reference control to measure the relative binding affinity of peptides to gp120. Purified gp120 and HLA-A*0201 were immobilised on chips, and the peptides were passed through both flow cells at a constant rate of 10 μl/min. […] The BIcore experiment acted as a second confirmation that the randomised peptide library had successfully captured peptides which bind to gp120 in a single round of selection, and that the sequence information coding the binding peptides was correctly preserved and sequenced.

HIV-1 JRFL gp120 = test: ELISA for binding between predicted peptides and gp120; details: compared to negative control HA2 (hemagglutinin-binding peptide)
HIV-1 BaL = test: HIV-1 inhibition assay (intracellular p24 in CD4+ cells of PBMC); details: for inhibition of HIV-1 BaL infection: without streptavidin conjugation
[1] = system: HIV-1 (HIV BAL, IIIB, clade C)
[2] = system: JRFL gp120 / recombinant CCR5; format: binding, HIV-1; details: 125 ng peptide
HIV-1 IIIB = test: HIV-1 inhibition assay (intracellular p24 in CD4+ cells of PBMC); format: cell-based; details: CXCR4 tropic virus

| Compound | affinity to gp120 (ranking) (purified gp120) | binding to gp120 on ELISA (absorbance) (HIV-1 JRFL gp120) | HIV-1 inhibition (in words) [1] | cross clade HIV-1 inhibitory activity [1] | further results |
| --- | --- | --- | --- | --- | --- |
| CC(C)C[C@H](NC(=O)[C@H](CC(C)C)NC(=O)[C@H](CC(N)=O)NC(=O)[C@H](CC(C)C)NC(=O)[C@H](CCCNC(=N)N)NC(=O)[C@H](CCCNC(=N)N)NC(=O)[C@H](CS)NC(=O)[C@H](Cc1c[nH]c2ccccc12)NC(=O)[C@@H](N)CC(C)C)C(=O)NCC(=O)NCC(=O)NCC(=O)NCC(=O)NCC(=O)NCC(=O)N[C@@H](CO)C(=O)NCC(=O)NCC(=O)N[C@@H](CO)C(=O)NCC(=O)N[C@@H](CCCCNC(=O)CCCC[C@@H]1SC[C@@H]2NC(=O)N[C@@H]21)C(=O)O [GP16] | highest affinity | significantly higher binding; also recorded: higher absorbance; also recorded: highest binding affinity | greatest inhibition | exhibited cross clade HIV-1 inhibitory activity | inhibition of HIV-1 BaL infection (HIV-1 BaL; 50 μM): less than 1%; inhibition of HIV-1 BaL infection (HIV-1 BaL; 100 μM): less than 1%; inhibition of HIV-1 BaL infection (HIV-1 BaL; 250 μM): 50%; reduction in absorbance of peptide binding to gp120 (gp120; gp120 blocked with any of the three antibodies (V3, VRC01, F105)): no reduction |
| LVLLSSASS [GP5] | highest affinity | – | – | – | – |
| LLALSAYMV [GP11] | highest affinity | significantly higher binding; also recorded: higher absorbance | – | exhibited cross clade HIV-1 inhibitory activity | – |
| SYSFCPRRQ (also: GS linker and biotinylated lysine, end not given here) [GP3] | highest affinity | significantly higher binding; also recorded: higher absorbance | greatest inhibition | exhibited cross clade HIV-1 inhibitory activity | reduction in absorbance (recombinant CCR5 binding to gp120) [2]: 65.8%; inhibition of HIV-1 BaL infection (HIV-1 BaL; 50 μM): no inhibitory effect; inhibition of HIV-1 BaL infection (HIV-1 BaL; 100 μM): 34.5%; inhibition of HIV-1 BaL infection (HIV-1 BaL; 250 μM): 54.7%; inhibition of replication (HIV-1 BaL; CCR5 tropic virus): exhibited inhibition; inhibition of replication (HIV-1 IIIB): no inhibition; reduction in absorbance of peptide binding to gp120 (gp120; gp120 pre-blocked with V3 antibody): significant reduction |
| SSCSVRSSCRLYYSC [GP21] | – | did not show any binding | did not show any HIV-1 inhibition | – | – |
| RRRNVPLIL (RRRNVPLIL-{GS linker-K(biotin)}; reading uncertain) [GP2] | – | significantly higher binding; also recorded: higher absorbance | – | – | – |
| enfuvirtide | – | – | – | – | viral inhibition ([1]; positive control, 50 μM): 91.1% |
